Test results taken from patent US12350265B2, “Pharmaceutical composition for treating acute myeloid leukemia, containing FLT3 inhibitor and chemotherapeutic agents” (Hanmi Pharm. Co., Ltd., priority 2019, dated 2025).

Tested on: MV-4-11 cell line
Experiment: MV-4-11 cell line xenografted mouse model, tumor volume / tumor growth inhibition
Type: in vivo
Conditions: nude mice xenografted with MV-4-11; Compound A 3 mg/kg/day orally once a day, days 1 to 21
Method: In a mouse model xenografted with the MV-4-11 cell line, comparison or combination efficacy tests were conducted of the FLT3 inhibitor 5-Chloro-N-(3-cyclopropyl-5-(((3R,5S)-3,5-dimethylpiperazine-1-yl)methyl)phenyl)-4-(6-methyl-1H-indole-3-yl)pyrimidin-2-amine (hereinafter compound A); 4-amino-1-[(2R,3S,4S,5R)-3,4-dihydroxy-5-(hydroxymethyl)oxolane-2-yl]pyrimidin-2-one (hereafter cytarabine); and ((8S,10S)-8-acetyl-10-[(2S,4S,5S,6S)-4-amino-5-hydroxy-6-methyl-oxane-2-yl]oxy-6,8,11-trihydroxy-1-methoxy-9,10-dihydro-7H-tetracene-5,12-dione (hereafter daunorubicin).
The MV-4-11 cell line was purchased from the American Type Culture Collection (ATCC). To construct a xenografted mouse model using this MV-4-11 cell line, 5-week-old female CAnN·Cg-Foxn1nu/Crljbgi mice (hereinafter, Nude mice) were purchased from Charles River Laboratories Japan, Inc.
The MV-4-11 cell line was inoculated subcutaneously in the flank with 5×10^6 cells/[…]/mouse and allowed to grow. Mice having a tumor volume of 100 to 300 mm^3 (length×width^2×0.5) were selected 1 day before administration, the average tumor volume in each group was divided into 4 groups (5 animals/group) so that the average tumor volume was almost the same, and each dose was administered for a total period of 21 days. […]

Cc1ccc2c(-c3nc(Nc4cc(CN5C[C@@H](C)N[C@@H](C)C5)cc(C5CC5)c4)ncc3Cl)c[nH]c2c1 [compound A, 5-Chloro-N-(3-cyclopropyl-5-(((3R,5S)-3,5-dimethylpiperazine-1-yl)methyl)phenyl)-4-(6-methyl-1H-indole-3-yl)pyrimidin-2-amine]
Tumor growth inhibition (TGI): 34.7%
